Experiments:
LP-1 cells = assay: Antiproliferative activity on LP-1 cells (CellTiter-Glo); assay type: cell-based; conditions: Homo sapiens, 72 hr of treatment, averaged values
Procedure: (§1) Determination of Antiproliferative Activity on LP-1, L-363 and JJN-3 Cells
(§2) All compounds tested were dissolved in DMSO and further dilutions were made in culture medium. Final DMSO concentration was 0.3% (v/v) in cell proliferation assays.
(§3) Viability was assessed using CellTiter-Glo cell viability assay kit (Promega). The human LP-1, L-363 and JJN-3 cells (DSMZ) were cultured in RPMI 1640 medium supplemented with 2 mM L-glutamine, and 10% fetal calf serum (PAA). Cells were routinely kept as suspension cells at 37° C. in a humidified 5% C02 atmosphere. Cells were passaged at a seeding density of 0.2×10^6/ml twice a week. Cells were seeded in black tissue culture treated 96-well plates (Perkin Elmer). Densities used for plating ranged from 2,000 to 6,000 cells per well in a total volume of 75 μl medium. After twenty four hours, drugs and/or solvents were added (25 μl) to a final volume of 100 μl. Following 72 hr of treatment plates were removed from the incubator and allowed to equilibrate to room temperature for approx 10 min. 100 μl CellTiter-Glo reagent was added to each well that was then covered (Perkin Elmer Topseal) and shaken on plate shaker for 10 min. Luminescence was measured on a HTS Topcount (Perkin Elmer). Within an experiment, the results for each treatment were the mean of 2 replicate wells.
(§4) For initial screening purposes, compounds were tested using a 9 point dilution curve (serial 1:3 dilutions). For each experiment, controls (containing no drug) and a blank incubation (containing cells read at the time of compound addition) were run in parallel. The blank value was subtracted from all control and sample values. For each sample, the mean value for cell growth (in relative light units) was expressed as a percentage of the mean value for cell growth of the control.

L-363 cells = assay: Antiproliferative activity on L-363 cells (CellTiter-Glo); assay type: cell-based; conditions: Homo sapiens, 72 hr of treatment, averaged values
Procedure: as §1, §2, §3, §4

JJN-3 cells = assay: Antiproliferative activity on JJN-3 cells (CellTiter-Glo); assay type: cell-based; conditions: Homo sapiens, 72 hr of treatment, averaged values
Procedure: as §1, §2, §3, §4

[1] = target: Recombinant Human NF-kappaB-inducing Kinase (NIK/MAP3K14) (Homo sapiens, UniProt Q99558); assay: Inhibition of auto-phosphorylation of recombinant human NIK/MAP3K14 (AlphaScreen); assay type: biochemical; conditions: GST-tagged NIK/MAP3K14 0.2 nM, 25 microM ATP, 1 h at 25° C.; averaged over all measurements on all batches; read-out: Alpha-Screen IC50
Chain of Recombinant Human NF-kappaB-inducing Kinase (NIK/MAP3K14) (Q99558 whole entry): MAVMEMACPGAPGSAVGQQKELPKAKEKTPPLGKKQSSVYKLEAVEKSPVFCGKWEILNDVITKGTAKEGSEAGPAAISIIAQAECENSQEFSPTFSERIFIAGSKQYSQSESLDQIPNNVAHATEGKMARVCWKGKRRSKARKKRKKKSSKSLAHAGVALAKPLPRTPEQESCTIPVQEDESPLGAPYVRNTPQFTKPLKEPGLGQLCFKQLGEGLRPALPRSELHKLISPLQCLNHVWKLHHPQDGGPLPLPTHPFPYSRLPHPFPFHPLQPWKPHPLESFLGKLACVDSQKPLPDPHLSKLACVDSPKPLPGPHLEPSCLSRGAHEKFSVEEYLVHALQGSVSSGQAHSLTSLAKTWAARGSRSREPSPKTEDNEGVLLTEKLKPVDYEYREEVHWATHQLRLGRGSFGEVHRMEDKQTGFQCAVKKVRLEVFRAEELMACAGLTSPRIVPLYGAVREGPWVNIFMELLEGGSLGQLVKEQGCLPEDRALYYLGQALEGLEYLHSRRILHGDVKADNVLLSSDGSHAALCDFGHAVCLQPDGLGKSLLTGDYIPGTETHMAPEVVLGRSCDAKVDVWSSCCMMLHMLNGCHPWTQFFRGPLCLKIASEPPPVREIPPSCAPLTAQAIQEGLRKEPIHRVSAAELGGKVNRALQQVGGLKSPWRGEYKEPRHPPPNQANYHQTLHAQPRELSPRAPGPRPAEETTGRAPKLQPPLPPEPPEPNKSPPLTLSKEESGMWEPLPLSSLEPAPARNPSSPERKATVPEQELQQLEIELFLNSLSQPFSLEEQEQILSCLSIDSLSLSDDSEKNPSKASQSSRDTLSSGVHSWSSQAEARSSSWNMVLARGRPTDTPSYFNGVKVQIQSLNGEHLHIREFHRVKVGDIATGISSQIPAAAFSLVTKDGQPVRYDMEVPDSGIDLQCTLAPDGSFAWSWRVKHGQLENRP
Procedure: Inhibition of Auto-phosphorylation of Recombinant Human NF-kappaB-inducing Kinase (NIK/MAP3K14) Activity (AlphaScreen®)
NIK/MAP3K14 auto-phosphorylation activity was measured using the AlphaScreen® (αscreen) format (Perkin Elmer). All compounds tested were dissolved in dimethyl sulfoxide (DMSO) and further dilutions were made in assay buffer. Final DMSO concentration was 1% (v/v) in assays. Assay buffer was 50 mM Tris pH 7.5 containing 1 mM EGTA (ethylene glycol tetraacetic acid), 1 mM DTT (dithiothreitol), 0.1 mM Na3VO4, 5 mM MgCl2, 0.01% Tween® 20. Assays were carried out in 384 well Alphaplates (Perkin Elmer). Incubations consisted of compound, 25 microM Adenosine-5′-triphosphate (ATP), and 0.2 nM NIK/MAP3K14. Incubations were initiated by addition of GST-tagged NIK/MAP3K14 enzyme, carried out for 1 h at 25° C. and terminated by addition of stop buffer containing anti-phospho-IKK Ser176/180 antibody. Protein A Acceptor and Glutathione-Donor beads were added before reading using an EnVision® Multilabel Plate Reader (Perkin Elmer). Signal obtained in the wells containing blank samples was subtracted from all other wells and IC50's were determined by fitting a sigmoidal curve to % inhibition of control versus Log10 compound concentration.

[2] = test system: P-IKKα levels in L363 cells; assay: Effect of compounds on P-IKKα levels in L363 cells; assay type: cell-based; conditions: Homo sapiens, L-363; L363 cells with BAFF, 2 hr treatment, P-IKKα by sandwich immuno-assay (Mesoscale); averaged values; read-out: IKKα Cellular IC50
Procedure: Effect of Compounds on P-IKKα Levels in L363 Cells
All compounds tested were dissolved in DMSO and further dilutions were made in culture medium. Final DMSO concentration was 1% (v/v) in cell assays. The human L363 cells (ATCC) were cultured in RPMI 1640 medium supplemented with GlutaMax and 10% fetal calf serum (PAA). Cells were routinely maintained at densities of 0.2×10^6 cells per ml-1×10^6 cells per ml at 37° C. in a humidified 5% C02 atmosphere. Cells were passaged twice a week splitting back to obtain the low density. Cells were seeded in 96 well plates (Nunc 167008) at 2×10^6 per ml media in a volume of 75 μl per well plus 25 μl 1 μg/ml recombinant human B-cell activating factor (BAFF/BLyS/TNFSF13B). Seeded cells were incubated at 37° C. in a humidified 5% CO2 atmosphere for 24 hr. Drugs and/or solvents were added (20 μl) to a final volume of 120 μl. Following 2 hr treatment plates were removed from the incubator and cell lysis was achieved by the addition of 30 μl 5× lysis buffer followed by shaking on a plate shaker at 4° C. for 10 min. At the end of this incubation lysed cells were centrifuged at 800×g for 20 min at 4° C. and the lysate was assessed for P-IKKα levels by sandwich immuno-assay carried out in anti-rabbit antibody coated Mesoscale plates. Within an experiment, the results for each treatment were the mean of 2 replicate wells.
For initial screening purposes, compounds were tested using an 8 point dilution curve (serial 1:3 dilutions). For each experiment, controls (containing MG132 and BAFF but no test drug) and a blank incubation (containing MG132 and BAFF and 10 μM ADS 125117, a test concentration known to give full inhibition) were run in parallel. The blank incubation value was subtracted from all control and sample values. To determine the IC50 a sigmoidal curve was fitted to the plot of % inhibition of control P-IKKα levels versus Log10 compound concentration.

Row | IC50 [1] [nM] | IC50 [2] [nM] | Compound | EC50 (LP-1 cells) [nM] | EC50 (L-363 cells) [nM] | EC50 (JJN-3 cells) [nM]
1 | 26 |  | CC(O)(C#Cc1cc2c(-c3nc(N)nc4ccsc34)cn(C3CN(C4CC4)C3)c2cn1)C1CC1 (single isomer, unassigned) [Compound 11] | 918 | 461 | 652
2 | 15 | 104 | CC(C)(O)C#Cc1cc2c(ccn2-c2nc(N)nc3ccsc23)cn1 [Compound 1] | 2220 | 979 | 764
3 | 9 | 339 | CC(C)(O)C#Cc1cc2c(cn1)c(CCC(C)(C)O)cn2-c1nc(N)nc2ccsc12 [Compound 2] | 10300 | 2800 | 1470
4 | 140 |  | CN1CCC(c2cn(-c3nc(N)nc4ccsc34)c3cc(C#CC(C)(C)O)ncc23)CC1 [Compound 3] | 3980 | 258 | 540
5 | 26 |  | CC(C)c1cn(-c2nc(N)nc3ccsc23)c2cc(C#CC(C)(C)O)ncc12 [Compound 4] | 3130 | 1580 | 1740
6 | 19 | 64 | COCCCn1cc(-c2nc(N)nc3ccsc23)c2cc(C#CC(C)(C)O)ncc21 [Compound 5] | 1680 | 395 | 299
7 | 15 |  | COCCCc1cn(-c2nc(N)nc3ccsc23)c2cc(C#CC(C)(C)O)ncc12 [Compound 6] | 3430 | 1040 | 580
8 | 32 |  | CC(C)(O)C#Cc1cc2c(-c3nc(N)nc4ccsc34)cn(C3COC3)c2cn1 [Compound 7] | > 30000 | 696 | 1060
9 | 112 |  | CC(O)(C#Cc1cc2c(-c3nc(N)nc4ccsc34)cn(C3CCN(C4CC4)CC3)c2cn1)C1CC1 (centres unmarked) [Compound 8] | 38 | 4 | 16
10 | 20 |  | [2H]C([2H])([2H])C(O)(C#Cc1cc2c(-c3nc(N)nc4ccsc34)cn(C3CCN(C4CC4)CC3)c2cn1)C([2H])([2H])[2H] [Compound 9] | 85 | 7 | 24
11 | 52 |  | [2H]C([2H])([2H])C(O)(C#Cc1cc2c(-c3nc(N)nc4ccsc34)cn(C3CN(C4CC4)C3)c2cn1)C([2H])([2H])[2H] [Compound 10] | 1480 | 610 | 494
12 | 66 |  | [2H]C([2H])([2H])C(O)(C#Cc1cc2c(-c3nc(N)nc4ccsc34)cn(C3CCCN(CC)C3)c2cn1)C([2H])([2H])[2H] (centres unmarked) [Compound 12] | 783 | 243 | 289
13 | 58 |  | [2H]C([2H])([2H])C(O)(C#Cc1cc2c(-c3nc(N)nc4ccsc34)cn(CC3CCCN3CC)c2cn1)C([2H])([2H])[2H] (centres unmarked) [Compound 13] | 75 | 36 | 60
14 | 38 |  | [2H]C([2H])([2H])C(O)(C#Cc1cc2c(-c3nc(N)nc4ccsc34)cn(C3CCN(CC)C3)c2cn1)C([2H])([2H])[2H] (centres unmarked) [Compound 14] | 655 | 122 | 145
